Measurements reported in article PMC3639963, “A New Class of Small Molecule Inhibitor of BMP Signaling” (PLoS ONE, 2013).

How the values were obtained:
Experiment in all cases: Nanosyn kinase profiling
Format in all cases: biochemical
Conditions in all cases: read-out: Percentage inhibition; for inhibition at 0.1 µM: 0.1 µM inhibitor; for inhibition at 1 µM: 1 µM inhibitor
[1] = biological target: T1, TSSK1 (Homo sapiens, UniProt Q9BXA7)
T1 construct: purchased Nanosyn (enzymatic panel); SGC in-house recombinant human kinases (DSF panel); Invitrogen (ALK1-6)
T1 sequence (Q9BXA7 1-367): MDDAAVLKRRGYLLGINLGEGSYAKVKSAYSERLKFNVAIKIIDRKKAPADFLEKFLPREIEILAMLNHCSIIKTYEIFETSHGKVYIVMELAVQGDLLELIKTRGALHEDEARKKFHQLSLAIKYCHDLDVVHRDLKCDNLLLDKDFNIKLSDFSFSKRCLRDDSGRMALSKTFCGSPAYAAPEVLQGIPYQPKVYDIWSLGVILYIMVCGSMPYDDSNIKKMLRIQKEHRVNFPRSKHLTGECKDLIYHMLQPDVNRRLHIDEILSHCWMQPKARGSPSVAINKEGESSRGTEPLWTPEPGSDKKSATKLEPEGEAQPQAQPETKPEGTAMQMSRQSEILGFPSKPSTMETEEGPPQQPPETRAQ
Procedure, shortened: (§1)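 Percent inhibition of each kinase was measured with the inhibitor at 0.1 µM and at 1 µM, as part of a 200-kinase human selectivity panel.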

[2] = biological target: T2, ZAP70 (Homo sapiens, UniProt P43403)
T2 construct: purchased Nanosyn (enzymatic panel); SGC in-house recombinant human kinases (DSF panel); Invitrogen (ALK1-6)
T2 sequence (P43403 1-619): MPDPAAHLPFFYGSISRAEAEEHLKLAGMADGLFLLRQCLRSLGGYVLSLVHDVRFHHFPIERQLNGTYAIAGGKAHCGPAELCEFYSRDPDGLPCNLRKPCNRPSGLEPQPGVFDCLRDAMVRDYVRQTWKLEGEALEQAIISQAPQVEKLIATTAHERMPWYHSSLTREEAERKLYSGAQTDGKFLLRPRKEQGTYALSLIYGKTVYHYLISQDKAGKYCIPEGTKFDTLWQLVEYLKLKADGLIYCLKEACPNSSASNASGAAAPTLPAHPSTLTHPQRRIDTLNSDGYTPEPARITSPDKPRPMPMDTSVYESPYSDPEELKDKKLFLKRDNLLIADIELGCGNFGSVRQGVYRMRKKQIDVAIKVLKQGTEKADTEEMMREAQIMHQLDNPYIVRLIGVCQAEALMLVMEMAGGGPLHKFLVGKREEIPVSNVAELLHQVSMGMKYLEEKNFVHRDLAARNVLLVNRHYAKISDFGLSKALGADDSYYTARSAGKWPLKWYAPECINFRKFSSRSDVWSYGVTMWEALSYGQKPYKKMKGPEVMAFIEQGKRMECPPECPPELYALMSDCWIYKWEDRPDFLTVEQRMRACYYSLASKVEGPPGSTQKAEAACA
Procedure, shortened: as §1

[3] = biological target: T3, FLT1 (Homo sapiens, UniProt P17948)
T3 construct: purchased Nanosyn (enzymatic panel); SGC in-house recombinant human kinases (DSF panel); Invitrogen (ALK1-6)
Procedure, shortened: as §1

[4] = biological target: T4, PHKγ1 (Homo sapiens, UniProt Q16816)
T4 construct: purchased Nanosyn (enzymatic panel); SGC in-house recombinant human kinases (DSF panel); Invitrogen (ALK1-6)
Procedure, shortened: as §1

[5] = biological target: T5, RSK4 (Homo sapiens, UniProt Q9UK32)
T5 construct: purchased Nanosyn (enzymatic panel); SGC in-house recombinant human kinases (DSF panel); Invitrogen (ALK1-6)
Procedure, shortened: as §1

[6] = biological target: T6, ARK5 (Homo sapiens, UniProt O60285)
T6 construct: purchased Nanosyn (enzymatic panel); SGC in-house recombinant human kinases (DSF panel); Invitrogen (ALK1-6)
T6 sequence (O60285 1-661): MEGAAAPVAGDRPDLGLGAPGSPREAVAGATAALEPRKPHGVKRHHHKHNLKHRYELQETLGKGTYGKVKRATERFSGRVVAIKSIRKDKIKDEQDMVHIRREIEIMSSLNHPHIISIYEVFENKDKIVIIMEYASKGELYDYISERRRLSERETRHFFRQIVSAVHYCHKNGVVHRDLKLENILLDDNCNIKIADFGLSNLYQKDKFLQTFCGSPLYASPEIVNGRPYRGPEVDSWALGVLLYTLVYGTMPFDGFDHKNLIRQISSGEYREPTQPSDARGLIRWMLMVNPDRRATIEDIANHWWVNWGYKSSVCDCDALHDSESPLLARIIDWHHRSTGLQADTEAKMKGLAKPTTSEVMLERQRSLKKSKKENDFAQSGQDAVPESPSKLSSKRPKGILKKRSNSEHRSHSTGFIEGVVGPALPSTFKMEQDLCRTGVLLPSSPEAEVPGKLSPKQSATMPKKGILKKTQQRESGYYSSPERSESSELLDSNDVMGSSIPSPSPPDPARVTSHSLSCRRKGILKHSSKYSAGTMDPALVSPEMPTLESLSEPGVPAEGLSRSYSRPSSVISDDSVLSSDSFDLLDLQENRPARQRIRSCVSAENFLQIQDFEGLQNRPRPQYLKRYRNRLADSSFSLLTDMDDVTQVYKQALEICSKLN
Procedure, shortened: as §1

[7] = biological target: T7, MRCKα (Homo sapiens, UniProt Q5VT25)
T7 construct: purchased Nanosyn (enzymatic panel); SGC in-house recombinant human kinases (DSF panel); Invitrogen (ALK1-6)
Procedure, shortened: as §1

[8] = biological target: T8, CDK3/cycE (Homo sapiens, UniProt Q00526)
T8 construct: purchased Nanosyn (enzymatic panel); SGC in-house recombinant human kinases (DSF panel); Invitrogen (ALK1-6)
Procedure, shortened: as §1

[9] = biological target: T9, CSK (Homo sapiens, UniProt P41240)
T9 construct: purchased Nanosyn (enzymatic panel); SGC in-house recombinant human kinases (DSF panel); Invitrogen (ALK1-6)
Procedure, shortened: as §1

[10] = biological target: T10, CK1γ1 (Homo sapiens, UniProt Q9HCP0)
T10 construct: purchased Nanosyn (enzymatic panel); SGC in-house recombinant human kinases (DSF panel); Invitrogen (ALK1-6)
Procedure, shortened: as §1

[11] = biological target: T11, TSSK2 (Homo sapiens, UniProt Q96PF2)
T11 construct: purchased Nanosyn (enzymatic panel); SGC in-house recombinant human kinases (DSF panel); Invitrogen (ALK1-6)
T11 sequence (Q96PF2 1-358): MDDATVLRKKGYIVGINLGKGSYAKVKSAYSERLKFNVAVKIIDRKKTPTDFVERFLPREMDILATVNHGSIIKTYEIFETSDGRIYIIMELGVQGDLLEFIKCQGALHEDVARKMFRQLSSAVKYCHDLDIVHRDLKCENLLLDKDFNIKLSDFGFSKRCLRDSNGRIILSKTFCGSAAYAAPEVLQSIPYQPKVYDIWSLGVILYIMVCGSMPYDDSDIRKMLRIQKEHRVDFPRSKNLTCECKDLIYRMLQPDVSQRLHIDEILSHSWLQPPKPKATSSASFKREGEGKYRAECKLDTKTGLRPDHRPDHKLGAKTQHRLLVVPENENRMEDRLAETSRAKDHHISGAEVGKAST
Procedure, shortened: as §1

[12] = biological target: T12, EPHA2 (Homo sapiens, UniProt P29317)
T12 construct: purchased Nanosyn (enzymatic panel); SGC in-house recombinant human kinases (DSF panel); Invitrogen (ALK1-6)
Procedure, shortened: as §1

T9 sequence (P41240 whole entry): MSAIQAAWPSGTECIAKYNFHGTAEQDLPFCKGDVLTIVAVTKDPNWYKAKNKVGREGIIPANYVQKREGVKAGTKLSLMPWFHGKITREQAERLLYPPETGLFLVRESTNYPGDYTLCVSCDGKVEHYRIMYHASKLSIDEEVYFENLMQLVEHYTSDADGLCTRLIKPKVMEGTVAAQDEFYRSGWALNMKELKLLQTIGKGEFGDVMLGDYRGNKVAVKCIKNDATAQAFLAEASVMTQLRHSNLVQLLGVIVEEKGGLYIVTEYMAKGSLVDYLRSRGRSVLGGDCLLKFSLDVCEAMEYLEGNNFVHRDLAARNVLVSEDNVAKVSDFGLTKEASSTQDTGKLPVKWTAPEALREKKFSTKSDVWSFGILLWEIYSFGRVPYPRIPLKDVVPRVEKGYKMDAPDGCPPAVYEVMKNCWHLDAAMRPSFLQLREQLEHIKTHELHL
T12 sequence (P29317 24-976): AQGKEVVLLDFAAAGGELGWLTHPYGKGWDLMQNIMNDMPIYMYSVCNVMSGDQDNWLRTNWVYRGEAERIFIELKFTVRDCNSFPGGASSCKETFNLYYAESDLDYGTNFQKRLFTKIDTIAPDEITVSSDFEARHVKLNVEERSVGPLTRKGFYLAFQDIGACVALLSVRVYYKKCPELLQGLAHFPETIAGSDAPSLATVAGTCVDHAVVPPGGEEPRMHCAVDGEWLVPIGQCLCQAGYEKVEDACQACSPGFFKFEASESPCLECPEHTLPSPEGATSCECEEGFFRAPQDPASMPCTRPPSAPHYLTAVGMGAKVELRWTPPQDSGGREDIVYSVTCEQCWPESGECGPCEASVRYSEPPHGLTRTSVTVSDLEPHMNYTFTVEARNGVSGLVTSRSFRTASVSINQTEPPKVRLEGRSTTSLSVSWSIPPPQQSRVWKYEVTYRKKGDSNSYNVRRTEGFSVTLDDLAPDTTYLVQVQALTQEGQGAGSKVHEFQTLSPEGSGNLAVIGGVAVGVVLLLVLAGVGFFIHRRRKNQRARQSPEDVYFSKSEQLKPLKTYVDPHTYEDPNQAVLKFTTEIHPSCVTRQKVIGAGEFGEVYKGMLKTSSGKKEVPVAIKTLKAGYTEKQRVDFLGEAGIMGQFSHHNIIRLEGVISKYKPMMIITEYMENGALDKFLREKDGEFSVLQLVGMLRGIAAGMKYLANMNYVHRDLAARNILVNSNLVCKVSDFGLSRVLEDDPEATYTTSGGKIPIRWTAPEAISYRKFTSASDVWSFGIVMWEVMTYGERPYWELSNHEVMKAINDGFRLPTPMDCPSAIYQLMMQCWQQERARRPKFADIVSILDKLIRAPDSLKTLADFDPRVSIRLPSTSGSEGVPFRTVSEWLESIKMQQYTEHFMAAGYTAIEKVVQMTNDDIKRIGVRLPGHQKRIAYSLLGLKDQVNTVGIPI
T7 sequence (Q5VT25 whole entry): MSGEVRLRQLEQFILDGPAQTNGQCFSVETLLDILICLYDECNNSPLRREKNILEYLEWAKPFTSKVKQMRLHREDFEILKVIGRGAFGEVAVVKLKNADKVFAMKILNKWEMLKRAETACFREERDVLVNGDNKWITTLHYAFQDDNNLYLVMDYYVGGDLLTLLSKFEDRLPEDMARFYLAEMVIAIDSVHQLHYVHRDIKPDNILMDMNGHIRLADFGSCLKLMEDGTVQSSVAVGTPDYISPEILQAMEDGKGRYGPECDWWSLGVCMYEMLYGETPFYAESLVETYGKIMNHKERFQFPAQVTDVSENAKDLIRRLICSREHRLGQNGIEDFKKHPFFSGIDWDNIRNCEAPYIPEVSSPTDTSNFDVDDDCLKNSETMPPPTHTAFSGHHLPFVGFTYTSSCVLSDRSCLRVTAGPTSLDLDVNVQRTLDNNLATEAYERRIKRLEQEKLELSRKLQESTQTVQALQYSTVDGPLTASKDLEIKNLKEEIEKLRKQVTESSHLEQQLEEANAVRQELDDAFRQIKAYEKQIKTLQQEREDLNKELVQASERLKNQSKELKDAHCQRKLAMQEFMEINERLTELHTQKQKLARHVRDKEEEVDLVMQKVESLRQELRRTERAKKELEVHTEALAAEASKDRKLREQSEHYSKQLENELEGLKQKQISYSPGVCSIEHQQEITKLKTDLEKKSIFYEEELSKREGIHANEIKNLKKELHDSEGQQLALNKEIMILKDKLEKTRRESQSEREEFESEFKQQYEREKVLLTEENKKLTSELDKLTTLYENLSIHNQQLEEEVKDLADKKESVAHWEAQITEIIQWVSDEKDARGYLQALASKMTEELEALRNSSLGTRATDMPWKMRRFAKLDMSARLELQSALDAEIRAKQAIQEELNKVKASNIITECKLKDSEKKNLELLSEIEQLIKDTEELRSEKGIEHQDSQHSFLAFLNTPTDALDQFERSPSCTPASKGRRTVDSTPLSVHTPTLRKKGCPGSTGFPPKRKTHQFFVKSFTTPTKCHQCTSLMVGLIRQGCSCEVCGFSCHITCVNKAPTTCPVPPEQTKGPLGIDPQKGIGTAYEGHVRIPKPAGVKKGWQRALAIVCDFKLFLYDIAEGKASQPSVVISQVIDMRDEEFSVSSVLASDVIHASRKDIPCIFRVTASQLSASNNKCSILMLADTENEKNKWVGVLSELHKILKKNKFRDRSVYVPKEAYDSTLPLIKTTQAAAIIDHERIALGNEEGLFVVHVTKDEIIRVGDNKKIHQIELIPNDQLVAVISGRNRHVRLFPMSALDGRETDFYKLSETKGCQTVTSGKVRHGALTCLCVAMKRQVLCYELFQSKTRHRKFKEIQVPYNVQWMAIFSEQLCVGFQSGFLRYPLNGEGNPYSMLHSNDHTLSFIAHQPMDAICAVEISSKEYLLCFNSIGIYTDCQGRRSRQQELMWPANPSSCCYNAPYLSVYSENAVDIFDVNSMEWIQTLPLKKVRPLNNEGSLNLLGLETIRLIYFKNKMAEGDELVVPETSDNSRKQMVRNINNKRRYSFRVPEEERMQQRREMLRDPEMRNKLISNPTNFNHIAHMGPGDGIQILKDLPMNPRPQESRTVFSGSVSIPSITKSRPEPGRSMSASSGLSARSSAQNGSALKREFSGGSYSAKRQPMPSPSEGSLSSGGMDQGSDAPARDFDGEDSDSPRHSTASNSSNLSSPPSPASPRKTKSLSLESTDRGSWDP
T4 sequence (Q16816 whole entry): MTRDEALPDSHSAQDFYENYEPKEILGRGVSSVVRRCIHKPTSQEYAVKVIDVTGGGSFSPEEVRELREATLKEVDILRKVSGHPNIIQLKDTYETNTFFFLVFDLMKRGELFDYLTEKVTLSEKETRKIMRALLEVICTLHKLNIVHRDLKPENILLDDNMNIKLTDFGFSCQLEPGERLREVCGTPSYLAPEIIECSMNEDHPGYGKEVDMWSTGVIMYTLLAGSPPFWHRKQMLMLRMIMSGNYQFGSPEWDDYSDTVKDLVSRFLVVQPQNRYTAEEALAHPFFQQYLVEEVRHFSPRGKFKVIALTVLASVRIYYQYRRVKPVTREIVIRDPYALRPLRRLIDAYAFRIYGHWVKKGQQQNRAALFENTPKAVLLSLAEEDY
T5 sequence (Q9UK32 whole entry): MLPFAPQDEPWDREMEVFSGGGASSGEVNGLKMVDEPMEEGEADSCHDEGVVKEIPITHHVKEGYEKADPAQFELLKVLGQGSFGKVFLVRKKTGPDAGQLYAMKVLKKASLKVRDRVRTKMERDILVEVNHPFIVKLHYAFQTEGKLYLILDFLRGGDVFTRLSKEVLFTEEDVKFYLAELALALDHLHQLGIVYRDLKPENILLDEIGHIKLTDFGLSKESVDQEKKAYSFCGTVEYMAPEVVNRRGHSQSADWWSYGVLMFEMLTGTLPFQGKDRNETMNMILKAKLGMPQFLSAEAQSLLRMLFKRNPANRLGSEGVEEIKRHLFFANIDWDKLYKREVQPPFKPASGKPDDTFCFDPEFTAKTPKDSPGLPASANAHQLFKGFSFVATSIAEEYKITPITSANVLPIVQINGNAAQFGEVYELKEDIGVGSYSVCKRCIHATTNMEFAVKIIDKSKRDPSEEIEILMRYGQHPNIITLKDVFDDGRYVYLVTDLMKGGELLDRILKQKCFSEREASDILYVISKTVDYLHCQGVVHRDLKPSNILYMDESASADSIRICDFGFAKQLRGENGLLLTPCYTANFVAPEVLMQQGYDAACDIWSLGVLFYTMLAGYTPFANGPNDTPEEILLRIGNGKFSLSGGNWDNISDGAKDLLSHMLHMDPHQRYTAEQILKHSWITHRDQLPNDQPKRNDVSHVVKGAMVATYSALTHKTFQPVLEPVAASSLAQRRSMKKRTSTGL
T8 sequence (Q00526 whole entry): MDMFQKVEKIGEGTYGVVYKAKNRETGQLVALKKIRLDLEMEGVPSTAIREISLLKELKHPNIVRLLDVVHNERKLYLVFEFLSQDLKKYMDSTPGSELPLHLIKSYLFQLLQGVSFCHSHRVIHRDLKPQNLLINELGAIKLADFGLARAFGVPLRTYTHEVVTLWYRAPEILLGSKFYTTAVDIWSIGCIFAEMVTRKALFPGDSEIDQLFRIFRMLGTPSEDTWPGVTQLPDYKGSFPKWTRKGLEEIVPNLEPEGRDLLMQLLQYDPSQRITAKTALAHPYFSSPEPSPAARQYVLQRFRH
T8 sequence (P24864 whole entry partner): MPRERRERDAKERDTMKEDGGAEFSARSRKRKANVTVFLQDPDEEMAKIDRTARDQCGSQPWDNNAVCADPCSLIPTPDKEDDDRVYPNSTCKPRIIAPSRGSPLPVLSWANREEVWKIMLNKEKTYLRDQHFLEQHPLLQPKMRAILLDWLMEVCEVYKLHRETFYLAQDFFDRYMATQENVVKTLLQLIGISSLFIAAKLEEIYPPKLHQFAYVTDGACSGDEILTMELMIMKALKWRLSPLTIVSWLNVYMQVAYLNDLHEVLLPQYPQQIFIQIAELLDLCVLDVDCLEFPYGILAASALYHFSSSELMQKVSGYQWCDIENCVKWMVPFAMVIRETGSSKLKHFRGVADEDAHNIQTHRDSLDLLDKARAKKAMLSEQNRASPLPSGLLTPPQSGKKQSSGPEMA

SMILES | inhibition at 0.1 µM [1] [%] | inhibition at 1 µM [1] [%] | inhibition at 0.1 µM [2] [%] | inhibition at 1 µM [2] [%] | inhibition at 0.1 µM [3] [%] | inhibition at 1 µM [3] [%] | inhibition at 0.1 µM [4] [%] | inhibition at 1 µM [4] [%] | inhibition at 0.1 µM [5] [%] | inhibition at 1 µM [5] [%] | inhibition at 0.1 µM [6] [%] | inhibition at 1 µM [6] [%] | inhibition at 0.1 µM [7] [%] | inhibition at 1 µM [7] [%] | inhibition at 0.1 µM [8] [%] | inhibition at 1 µM [8] [%] | inhibition at 0.1 µM [9] [%] | inhibition at 1 µM [9] [%] | inhibition at 0.1 µM [10] [%] | inhibition at 1 µM [10] [%] | other results
COc1cc(-c2cc(-c3cccc(O)c3)cnc2N)cc(OC)c1OC [K02288, 3-[6-amino-5-(3,4,5-trimethoxy-phenyl)-pyridin-3-yl]-phenol] | -1 | -2 | -2 | 1 | 0 | -2 | 1.8 | 4.4 | 0.1 | 1 | 1.1 | 4.1 | 2 | 6.9 | 1.6 | -91 | 3.2 | 13 | 0 | 6.1 | inhibition at 0.1 µM [11]: -1%; inhibition at 1 µM [11]: -3%; inhibition at 0.1 µM [12]: -2%; inhibition at 1 µM [12]: 3%
c1ccc2c(-c3cnn4cc(-c5ccc(N6CCNCC6)cc5)cnc34)ccnc2c1 [LDN-193189] | 3.5 | 5.2 | 4.7 | 1 | 0 | 17 | 5.2 | 27 | 0.8 | 3.8 | 16 | 56 | 0.8 | 6.8 | 1.6 | 7 | 3.3 | 6 | 3.1 | 14 | inhibition at 0.1 µM [11]: 0%; inhibition at 1 µM [11]: 0.5%; inhibition at 0.1 µM [12]: -2%; inhibition at 1 µM [12]: -3%
